The target in test [1] is T1, His6-Flag-TEV-NLRP3 (134-1036) (Homo sapiens, UniProt Q96P20).
T1 construct: fused on or other part: N-terminal His6 tag, Flag tag and TEV cleavage site
As to the kind of experiment: NLRP3 fluorescence polarization (FP) binding assay, competition with probe NP3-301. The settings on record: competition with NP3-301 for binding to NLRP3 (134-1036), 30 nM protein. The protocol: This experiment uses fluorescence polarization technology to detect and evaluate the binding assay.
The fluorescent probe used in this assay is the compound NP3-301 in the Journal of Molecular Biology (2021) 433, 167309, which was synthesized with reference to this literature.
His6-Flag-TEV-NLRP3 (134-1036) protein (SEQ NO. 1) was purchased from Kaihuiruizhi Biotech (Shanghai) Co., Ltd. (ChemPartner), and was customed for expression.
Prepare 1× assay buffer: 50 mM Hepes, pH 7.4, 150 mM NaCl, 2.5 mM MgCl2, 0.005% Tween-20, 1 mM TCEP, 100 μM ATP.
First, 2.5 μL of 4× compound solution was added to a black shallow 384-well plate (Greiner, 784076), the shallow well plate was sealed, and centrifuged at 1000 rpm for 1 min; then 2× NLPR3 protein solution (final concentration of 30 nM) was added, the shallow well plate was sealed, centrifuged at 1000 rpm for 1 min, and incubated at room temperature for 60 min. Finally, 2.5 μL of 4× NP3-301 (final concentration of 0.5 nM) was added, the shallow well plate was sealed, centrifuged at 1000 rpm for 1 min, and incubated at room temperature for 30 min. Envision was used to read the fluorescence polarization values of λex=485+20 nm and kem=535+25 nm. GraphPad Prism 9.5.0 was used to analyze the data, and the IC50 value of the competition between the compound and NP3-301 for binding to His6-Flag-TEV-NLRP3 (134-1036) was fitted by four-parameter logistic. The compounds of the present disclosure have good NLRP3 binding activity, and the test results of some representative compounds are shown in Table 1.

The subject of test [2] is IL-1β secretion of THP-1 cells. The experiment in a line: Effect of NLRP3 inhibitor on IL-1β secretion of THP-1 cells (AlphaLISA). The class given is cell-based. The settings on record: Homo sapiens; PMA, LPS and Nigericin stimulated THP-1 cells, IL-1β in supernatant; read-out: IC50 (nM), THP-1 cells to detect NLRP3 inhibitors. The protocol:
This experiment used the PerkinElmer AlphaLISA_human_IL1β kit (AL220 C/F). The detection buffer was RPMI-1640+10FBS. AlphaLISA Immunoassay Buffer, AlphaLISA Anti-IL1β Acceptor beads, Streptavidin (SA)-coated Donor beads, and Biotinylated Antibody Anti-IL1β were all included in the kit.
The density of THP1 cells was adjusted to 4×10^5 cells/mL, PMA (final concentration 50 nM) was added, inoculated into 96-well flat-bottom plates at 200 μL/well, and stimulated overnight at 37° C., 5% CO2 (try to <16h). The next day, the supernatant was discarded, and the flat washed twice with DPBS ([…]/time). Then LPS solution (final concentration of 100 ng/ml) was added at 198 μL/well, incubated at 37° C., 5% CO2 for 3h. 1 μL of the corresponding concentration of compounds was added to each well according to the experimental MAP, incubated at 37° C., 5% CO2 for 1 h. 1 μL Nigericin (final concentration of […]) was added to each well, incubated overnight at 5% CO2 (>18h). On the third day, 5 μL of supernatant was taken, diluted 20 times, and the content of IL-Iβ in the supernatant was detected by Human Interleukin 1 beta (IL1β) Kit. Envision was used to read the AlphaLISA test value of Ex=680/[…]. GraphPad Prism 9.5.0 was used to analyze the data, and the IC50 value of the compound for IL-Iβ antagonism was fitted by four-parameter Logistic.
In general terms: In Alpha technology, singlet oxygen from a donor bead excites a nearby acceptor bead.

Among the data in patent US20260234150A1, “COMPOUND FOR INHIBITING NLRP3, PREPARATION METHOD, AND USE” (DOVETREE MEDICINES UNUS, INC., priority 2023, published 2026) are IC50 values, retold here.

T1 sequence (Q96P20 134-1036 limits assumed): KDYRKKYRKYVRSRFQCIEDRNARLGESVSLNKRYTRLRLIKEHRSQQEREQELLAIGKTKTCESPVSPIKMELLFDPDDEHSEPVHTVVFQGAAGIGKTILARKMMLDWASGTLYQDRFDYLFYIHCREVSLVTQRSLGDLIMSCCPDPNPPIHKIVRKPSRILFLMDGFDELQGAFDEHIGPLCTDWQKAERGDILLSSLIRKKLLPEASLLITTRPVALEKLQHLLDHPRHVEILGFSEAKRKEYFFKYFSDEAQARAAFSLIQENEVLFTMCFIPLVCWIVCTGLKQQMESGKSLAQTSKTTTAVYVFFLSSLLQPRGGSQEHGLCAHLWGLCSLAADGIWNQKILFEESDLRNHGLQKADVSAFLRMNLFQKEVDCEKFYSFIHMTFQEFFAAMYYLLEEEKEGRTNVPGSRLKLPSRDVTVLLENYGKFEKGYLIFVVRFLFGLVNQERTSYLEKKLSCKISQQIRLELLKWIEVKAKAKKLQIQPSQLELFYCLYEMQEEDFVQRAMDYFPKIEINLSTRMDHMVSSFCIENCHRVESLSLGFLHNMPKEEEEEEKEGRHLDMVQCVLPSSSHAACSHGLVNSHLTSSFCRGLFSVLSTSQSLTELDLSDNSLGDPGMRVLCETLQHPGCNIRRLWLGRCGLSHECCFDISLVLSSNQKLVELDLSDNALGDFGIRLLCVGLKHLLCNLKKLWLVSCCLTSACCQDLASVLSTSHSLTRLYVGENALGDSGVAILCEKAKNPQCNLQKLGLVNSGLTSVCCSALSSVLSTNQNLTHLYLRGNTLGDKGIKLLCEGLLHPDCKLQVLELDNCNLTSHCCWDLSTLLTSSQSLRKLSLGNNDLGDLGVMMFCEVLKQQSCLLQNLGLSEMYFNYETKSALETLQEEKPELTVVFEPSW

On to `Cc1cc(C(F)(F)F)cc(O)c1-c1ccc2oc(N[C@@H]3CCCN(C4CC4)C3)nc2n1` [Compound 399], for which the IC50 (as a rule, the midpoint of a concentration-inhibition curve) was not above 100 nM in test [1] and less than 50 nM in test [2].
Turning to `CCN1CCC[C@@H](Nc2nc3ccc(-c4c(C)cc(C(F)(F)F)cc4O)nn3n2)C1` [Compound 439], the IC50 in test [1] is not above 100 nM; in test [2] it was less than 50 nM.
With `Cc1cc(C(F)(F)F)cc(O)c1-c1ccc2[nH]c(CC(N)=O)nc2n1` [Compound 5], the results for the IC50 in test [1] and in test [2] were not above 100 nM and 100 to 500 nM, respectively.
With `CCN1CCCC(c2nc3nc(-c4c(C)cc(C(F)(F)F)cc4O)ccc3[nH]2)C1` (centres unmarked) [Compound 10], the IC50 in test [1] is not above 100 nM; in test [2], 100 to 500 nM.
Turning to `Cc1cc(C(F)(F)F)cc(O)c1-c1ccc2[nH]c(C3CCCNC3)nc2n1` (centres unmarked) [Compound 9], the IC50 in test [1] was not above 100 nM; in test [2], 50 to 100 nM.
The matching figures for `Cc1cc(C(F)(F)F)cc(O)c1-c1ccc2oc(N3CCN(S(C)(=O)=O)CC3)nc2n1` [Compound 390]: not above 100 nM and less than 50 nM.
Regarding `Cc1cc(C(F)(F)F)cc(O)c1-c1ccc2nc(N3CCS(=O)(=O)CC3)nn2n1` [Compound 422], the IC50 in test [1] was not above 100 nM; in test [2] it was 100 to 500 nM.
Take `Cc1cc(C(F)(F)F)cc(O)c1-c1ccc2oc(NC[C@@H]3COCCN3C(=O)C(F)(F)F)nc2n1` [Compound 247]: the IC50 was not above 100 nM in test [1] and 50 to 100 nM in test [2].
The matching figures for `Cc1cc(C(F)(F)F)cc(O)c1-c1ccc2oc(N[C@@H]3CCCN(CCO)C3)nc2n1` [Compound 404]: not above 100 nM and less than 50 nM.
On to `CCS(=O)(=O)N1CCN(c2nc3nc(-c4c(C)cc(C(F)(F)F)cc4O)ccc3o2)CC1` [Compound 388], for which the IC50 was not above 100 nM in test [1] and 50 to 100 nM in test [2].
Turning to `Cc1cc(C(F)(F)F)cc(O)c1-c1ccn2nc(N[C@@H]3CCCN(C)C3)nc2n1` [Compound 444], the IC50 in test [1] was not above 100 nM; in test [2], less than 50 nM.
Regarding `CCN1CCC[C@H](Nc2nc3nc(-c4c(C)cc(C(F)(F)F)cc4O)cc(C)n3n2)C1` [Compound 462], the IC50 in test [1] is not above 100 nM; in test [2] it was less than 50 nM.
Turning to `Cc1cc(C(F)(F)F)cc(O)c1-c1ccc2oc(NC[C@@H](C)O)nc2n1` [Compound 413], the IC50 in test [1] is not above 100 nM; in test [2], 50 to 100 nM.
The matching figures for `Oc1cc(Cl)cc(O)c1-c1ccc2oc(N3CCOCC3)nc2n1` [Compound 376]: not above 100 nM and less than 50 nM.
The matching figures for `CCS(=O)(=O)N1CCN(c2nc3nc(-c4c(C)cc(C(F)(F)F)cc4O)ccc3o2)C[C@@H]1C` [Compound 394]: not above 100 nM and 50 to 100 nM.
In the case of `Cc1cc(C(F)(F)F)cc(O)c1-c1ccc2oc(NC[C@@H]3COCCN3S(=O)(=O)C3CC3)nc2n1` [Compound 260], the half-inhibitory concentration (IC50) was not above 100 nM in test [1] and less than 50 nM in test [2].
Regarding `CC(=O)NC[C@@H]1COCCN1c1nc2c(C)cc(-c3c(C)cc(C(F)(F)F)cc3O)nn2n1` [Compound 442], the IC50 in test [1] is not above 100 nM; in test [2], less than 50 nM.
On to `Cc1cc(C(F)(F)F)cc(O)c1-c1cc(C)n2nc(N[C@H]3CCCN(CCO)C3)nc2n1` [Compound 460], for which the IC50 is not above 100 nM in test [1] and less than 50 nM in test [2].
Turning to `Cc1cc(C(F)(F)F)cc(O)c1-c1cc(C)n2nc(N3CCOCC3)nc2n1` [Compound 440], the IC50 in test [1] was not above 100 nM; in test [2] it was 50 to 100 nM.
Consider `CCN1CCCC(N2CC(=O)Nc3cc(-c4c(C)cc(C(F)(F)F)cc4O)nnc32)C1` (centres unmarked) [Compound 12], for which the IC50 in test [1] is not above 100 nM; in test [2], 100 to 500 nM.
For the molecule `CCN1CCC[C@@H](n2ccc3cc(-c4c(C)cc(C(F)(F)F)cc4O)nnc32)C1` [Compound 11-a], the IC50 was not above 100 nM in test [1] and less than 50 nM in test [2].
Take `Cc1cc(C(F)(F)F)cc(O)c1-c1ccn2nc(N3CCOCC3)nc2n1` [Compound 426]: the figures for the IC50 in test [1] and in test [2] were not above 100 nM and less than 50 nM, respectively.
The matching figures for `CCN1CCC[C@@H](Nc2nc3c(C)cc(-c4c(C)cc(C(F)(F)F)cc4O)nn3n2)C1` [Compound 447]: not above 100 nM and less than 50 nM.
Consider `CCN1CCCC(n2ccc3cc(-c4c(C)cc(C(F)(F)F)cc4O)nnc32)C1` (centres unmarked) [Compound 11], for which the IC50 in test [1] was not above 100 nM; in test [2], less than 50 nM.
`CC(=O)N1C[C@@H]2CN(c3nc4nc(-c5c(C)cc(C(F)(F)F)cc5O)ccc4o3)C[C@@H]2C1` [Compound 360]: the IC50 in test [1] is not above 100 nM.
In test [1], `CC(=O)N1CCOC[C@H]1CNc1nc2nc(-c3c(C)cc(C(F)(F)F)cc3O)ccn2n1` [Compound 453] gave an IC50 of 500 to 1000 nM.
On to `Cc1cc(C(F)(F)F)cc(O)c1-c1ccc2oc(N3CCS(=O)(=O)c4ccccc43)nc2n1` [Compound 386], for which the 50% inhibitory concentration (IC50) in test [1] is not above 100 nM.
For `Cc1cc(C(F)(F)F)cc(O)c1-c1ccc2[nH]c(NCC(C)(C)O)nc2n1` [Compound 6], the IC50 in test [2] lay in the range of 100 to 500 nM.
On to `CCN1CCC[C@H](n2ccc3cc(-c4c(C)cc(C(F)(F)F)cc4O)nnc32)C1` [Compound 11-b], for which the 50% inhibitory concentration (IC50) in test [1] fell in the range of 100 to 500 nM.
In test [1], `CC(=O)N1CC[C@@H](CNc2nc3nc(-c4c(C)cc(C(F)(F)F)cc4O)ccc3o2)C1` [Compound 271] showed an IC50 of 100 to 500 nM.
For the molecule `CC(=O)N1CCOC[C@H]1CNc1nc2nc(-c3c(C)cc(C(F)(F)F)cc3O)cc(C)n2n1` [Compound 457], the IC50 in test [1] fell in the range of 100 to 500 nM.
Turning to `Cc1cc(C(F)(F)F)cc(O)c1-c1ccc2cc(N3CCOC[C@H]3C)nn2n1` [Compound 438], the IC50 in test [1] was not above 100 nM.
`CC(=O)N1CCC(Nc2nc3nc(-c4c(C)cc(C(F)(F)F)cc4O)ccc3o2)CC1` [Compound 412]: in test [1], the IC50 lay in the range of 100 to 500 nM.
The same measure, in the same setting: next, `Cc1cc(C(F)(F)F)cc(O)c1-c1ccc2nc(N[C@@H]3CCCN(CCO)C3)nn2n1` [Compound 454]: not above 100 nM.
`Cc1cc(C(F)(F)F)cc(O)c1-c1ccc2oc(N3CCN(C)C3=O)nc2n1` [Compound 396]: the IC50 in test [1] is not above 100 nM.
Same read-out and setting: next, `CCN1CCC2(CC1)CCN(c1nc3nc(-c4c(C)cc(C(F)(F)F)cc4O)ccc3o1)CC2` [Compound 367]: 100 to 500 nM; `Cc1cc(C(F)(F)F)cc(O)c1-c1ccc2oc(N3CCC4(CCOC4)C3)nc2n1` (centres unmarked) [Compound 361]: 100 to 500 nM.
Molecule `Cc1cc(C(F)(F)F)cc(O)c1-c1ccc2ccc(N)nc2n1` [Compound 7] had an IC50 in test [1] of 100 to 500 nM.
For `CC(=O)N1CCC[C@@H](Nc2nc3nc(-c4c(C)cc(C(F)(F)F)cc4O)ccc3o2)C1` [Compound 407], the IC50 in test [1] was not above 100 nM.
On the same count and under the same terms, next, `Cc1cc(C(F)(F)F)cc(O)c1-c1ccc2oc(N3CCO[C@H](C)C3)nc2n1` [Compound 374]: not above 100 nM; `CC(=O)N1C[C@@H](O)[C@H](Nc2nc3nc(-c4c(C)cc(C(F)(F)F)cc4O)ccc3o2)C1` [Compound 272]: not above 100 nM; `Cc1cc(C)c(-c2ccc3oc(N4CCOCC4)nc3n2)c(O)c1` [Compound 375]: not above 100 nM.
Regarding `Cc1cc(C(F)(F)F)cc(O)c1-c1cc2ccn(C3CCS(=O)(=O)CC3)c2nn1` [Compound 124], in test [1], the IC50 is 100 to 500 nM.
Regarding `CC(=O)N1CCCC2(CCN(c3nc4nc(-c5c(C)cc(C(F)(F)F)cc5O)ccc4o3)CC2)C1` [Compound 370], the IC50 in test [1] was 500 to 1000 nM.
In test [1], `CCS(=O)(=O)N1CCN(c2nc3nc(-c4c(C)cc(C(F)(F)F)cc4O)ccc3o2)[C@@H](C)C1` [Compound 393] displayed an IC50 of 100 to 500 nM.
`Cc1cc(C(F)(F)F)cc(O)c1-c1ccc2nc(NC[C@@H]3COCCN3S(C)(=O)=O)nn2n1` [Compound 421] showed an IC50 in test [1] of 500 to 1000 nM.
In test [1], `Cc1cc(-c2ccc(C(F)(F)F)cc2O)nc2nc(N3CCOCC3)nn12` [Compound 458] returned a half-inhibitory concentration (IC50) not above 100 nM.
